Reference: patent US10654834B2 (Venenum Biodesign, LLC, priority 2016, dated 2020)

Experiments:
mouse TGR5 receptor = target: T1, mouse TGR5 receptor (Mus musculus, UniProt Q80SS6); assay: Mouse TGR5 luminescent cAMP production assay (HEK293-EBNA cells, DiscoveRx cAMP XS+ kit); assay type: cell-based; settings: HEK293-EBNA cells overexpressing mouse TGR5, luminescent cAMP assay; read-out: Mouse TGR5 Lum. cAMP Activity (EC50)
T1 construct: host or cells: HEK293-EBNA (293 c18, ATCC CRL10852)
T1 sequence (Q80SS6 1-329): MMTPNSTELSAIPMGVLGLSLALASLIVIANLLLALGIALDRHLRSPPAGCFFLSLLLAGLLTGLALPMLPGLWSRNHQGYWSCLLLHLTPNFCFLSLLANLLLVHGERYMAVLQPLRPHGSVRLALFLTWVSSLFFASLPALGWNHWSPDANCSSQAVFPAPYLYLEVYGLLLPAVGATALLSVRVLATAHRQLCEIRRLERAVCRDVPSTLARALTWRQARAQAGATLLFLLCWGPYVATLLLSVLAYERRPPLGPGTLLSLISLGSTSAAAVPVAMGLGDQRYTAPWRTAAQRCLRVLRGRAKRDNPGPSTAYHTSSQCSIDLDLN
Method: Mouse TGR5 cAMP Production Assay
Compounds of the present invention were evaluated for their ability to induce cAMP production in HEK-EBNA cells overexpressing the mouse TGR5 receptor. Human embryonic kidney cells (HEK293-EBNA) stably expressing mouse TGR5 receptor were established using the following procedure. Specifically, a commercially obtained gene encoding mouse TGR5 (accession number BC116914) from Thermo Scientific (Waltham, Mass.) was cloned into an episomal expression vector. The resulting expression plasmid was then transfected into 293 c18 (ATCC® CRL10852™) cells, which express the Epstein-Barr virus nuclear antigen EBNA1 and can support the replication of episomal vectors. Selection for the plasmid was maintained with Hygromycin B. Cells were cultured and maintained in DMEM (Sigma; cat #6429) supplemented with 10% Fetal Bovine Serum, 1% penicillin/streptomycin, 2 mM L-alanine L-glutamine (GlutaMax), and 250 μg/mL Hygromycin.
We developed two cAMP production assays.
(i) Luminescent cAMP Production Assay
In this first cAMP production assay, the cAMP production was measured using DiscoveRx's cAMP XS+ kit following the manufacturer's recommended protocol. Briefly, HEK293-EBNA cells stably overexpressing mouse TGR5 were harvested using non-enzymatic cell dissociation buffer (Sigma-Aldrich, St. Louis, Mo.), spun down, then resuspended in serum-free DMEM with 500 μM IBMX at a density of 1.25×10^6 cells/mL. 500 μL of cAMP antibody solution was added to 500 μL of cell suspension and incubated at room temperature for 20 min.
Test compounds were serially diluted (half-log dilutions) in DMSO and then further diluted 1:50 in PBS, 10 mM HEPES buffer. 2 μL of serially diluted compound was added to a 384-well low volume plate (Greiner cat #784075) and centrifuged briefly. 2 μl of the cell/cAMP antibody mixture was then added to each compound-containing well and allowed to incubate at room temperature for one (1) hour. Following incubation, the XS+ kits' ED/Lysis/CL Substrate Working Solution was prepared following the manufacturer's recommended protocol and 4 μL was added to each well of the plate. The plate was then incubated for one (1) hour at room temperature. Following incubation, 4 μL of (Enzyme Acceptor) EA reagent was added to the plate and allowed to incubate overnight at room temperature. Luminescent signal was then detected using the Viewlux instrument (PerkinElmer, Waltham, Mass.).
In Table 52, EC50 values for both human and mouse cells were determined according to the TGR5 cAMP assays described above. […]

human TGR5 receptor = target: T2, human TGR5 receptor (Homo sapiens, UniProt Q8TDU6); assay: Human TGR5 cAMP production assay (hTGR5-CHO cells, DiscoveRx cAMP XS+ kit); assay type: cell-based; settings: luminescent cAMP assay, read-out: Human TGR5 Lum. cAMP Activity (EC50)
T2 construct: host or cells: CHO-K1 (hTGR5-CHO)
T2 sequence (Q8TDU6 1-330): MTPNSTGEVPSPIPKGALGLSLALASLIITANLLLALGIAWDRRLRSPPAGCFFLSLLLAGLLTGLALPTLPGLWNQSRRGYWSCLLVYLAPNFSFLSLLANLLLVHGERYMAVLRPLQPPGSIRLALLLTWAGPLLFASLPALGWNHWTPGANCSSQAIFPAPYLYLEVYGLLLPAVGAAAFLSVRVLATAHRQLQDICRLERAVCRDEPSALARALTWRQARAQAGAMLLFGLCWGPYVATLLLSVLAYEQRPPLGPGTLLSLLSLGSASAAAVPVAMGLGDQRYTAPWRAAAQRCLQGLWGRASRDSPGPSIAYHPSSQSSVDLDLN
Summary of the method: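 CHO-K1 cells stably expressing hTGR5, in PBS with IBMX and cAMP antibody, treated with half-log compound dilutions for 1 h at room temperature. cAMP measured by enzyme-fragment complementation luminescence after overnight detection; EC50 values reported.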

| Compound | EC50 (mouse TGR5 receptor) [nM] | EC50 (human TGR5 receptor) [nM] |
| --- | --- | --- |
| N#Cc1ccc(CCNC(=O)[C@@H]2CCCN2c2cc(-c3ccc(OC(F)(F)F)cc3)nc(C(F)(F)F)n2)cc1 [Compound 150, (S)-N-(4-cyanophenethyl)-1-(6-(4-(trifluoromethoxy)phenyl)-2-(trifluoromethyl)pyrimidin-4-yl)pyrrolidine-2-carboxamide] | 100 to 999 | 100 to 999 |
| Nc1cc(N2CCC[C@@H](C(=O)NCCc3ccc(C(F)(F)F)cc3)C2)nc(C(F)(F)F)n1 [Compound 320, (R)-1-(6-amino-2-(trifluoromethyl)pyrimidin-4-yl)-N-(4-(trifluoromethyl)phenethyl)piperidine-3-carboxamide] | 100 to 999 | 100 to 999 |
| COc1ccc(-c2cc(N3CCC[C@H]3C(=O)NCCc3ccc(C#N)cc3)nc(C(F)(F)F)n2)cc1 [Compound 148, (S)-N-(4-cyanophenethyl)-1-(6-(4-methoxyphenyl)-2-(trifluoromethyl)pyrimidin-4-yl)pyrrolidine-2-carboxamide] | < 100 | 100 to 999 |
| N#Cc1ccc(CCNC(=O)[C@@H]2CCCN2c2cc(-c3cccs3)nc(C(F)(F)F)n2)cc1 [Compound 165, (S)-N-(4-cyanophenthyl)-1-(6-(thiophene-2-yl)-2-(trifluoromethyl)pyrimidin-4-yl)pyrrolidine-2-carboxamide] | 100 to 999 | 100 to 999 |
| N#Cc1ccc(CCNC(=O)[C@@H]2CCCN2c2cc(-c3ccco3)nc(C(F)(F)F)n2)cc1 [Compound 167, (S)-N-(4-cyanophenethyl)-1-(6-(furan-2-yl)-2-(trifluoromethyl)pyrimidin-4-yl)pyrrolidine-2-carboxamide] | 100 to 999 | 1000 to 30000 |
| O=C(NCCc1ccc(C(F)(F)F)cc1)[C@@H]1CCCN1c1cc(-c2ccncc2)nc(C(F)(F)F)n1 [Compound 140, (S)-1-(6-(pyridin-4-yl)-2-(trifluoromethyl)pyrimidin-4-yl)-N-(4-(trifluoromethyl)phenethyl)pyrrolidine-2-carboxamide] | 100 to 999 | 100 to 999 |
| CC(C)(C)OC(=O)N1CCC(Oc2cc(N3CC[C@H]3C(=O)NCCc3ccc(C#N)cc3)nc(C(F)(F)F)n2)CC1 [Compound 243, (S)-tert-butyl 4-((6-(2-((4-cyanophenethyl)carbamoyl)azetidin-1-yl)-2-(trifluoromethyl)pyrimidin-4-yl)oxy)piperidine-1-carboxylate] | 100 to 999 | 100 to 999 |
| N#Cc1ccc(CCNC(=O)[C@@H]2CCCN2c2cc(Nc3ccncc3)nc(C(F)(F)F)n2)cc1 [Compound 14] | 1000 to 30000 | 1000 to 30000 |
| O=C(NCCc1ccc(C(F)(F)F)cc1)[C@@H]1CCCN(c2cc(NC3CCOCC3)nc(C(F)(F)F)n2)C1 [Compound 326, (R)-1-(6-((tetrahydro-2H-pyran-4-yl)amino)-2-(trifluoromethyl)-pyrimidin-4-yl)-N-(4-(trifluoromethyl)phenethyl)piperidine-3-carboxamide] | < 100 | 100 to 999 |
| COCC(=O)N1CCN(c2cc(N3CCC[C@@H](C(=O)NCCc4ccc(C(F)(F)F)cc4)C3)nc(C(F)(F)F)n2)CC1 [Compound 337, (R)-1-(6-(4-(2-methoxyacetyl)piperazin-1-yl)-2-(trifluoromethyl)pyrimidin-4-yl)-N-(4-(trifluoromethyl)phenethyl)piperidine-3-carboxamide] | < 100 | 100 to 999 |

Further lines, results first:

| EC50 (mouse TGR5 receptor) [nM] | EC50 (human TGR5 receptor) [nM] | Compound |
| --- | --- | --- |
| 100 to 999 | < 100 | COCC1CCN(c2cc(N3CCC[C@H]3C(=O)NCCc3ccc(C(F)(F)F)cc3)nc(C(F)(F)F)n2)CC1 [Compound 8] |
| 1000 to 30000 | 1000 to 30000 | Cc1noc(C)c1-c1cc(N2CCC[C@H]2C(=O)NCCc2ccc(C#N)cc2)nc(C(F)(F)F)n1 [Compound 156, (S)-N-(4-cyanophenethyl)-1-(6-(3,5-dimethylisoxazol-4-yl)-2-(trifluoromethyl)pyrimidin-4-yl)pyrrolidine-2-carboxamide] |
| < 100 | < 100 | N#Cc1ccc(CCNC(=O)C2CCN2c2cc(N3CCC(CO)CC3)nc(C(F)(F)F)n2)cc1 (centres unmarked) [Compound 241, N-(4-cyanophenethyl)-1-(6-(4-(hydroxymethyl)piperidin-1-yl)-2-(trifluoromethyl)pyrimidin-4-yl)azetidine-2-carboxamide] |
| 100 to 999 | 100 to 999 | COCCOc1cc(N2CCC[C@H]2C(=O)NCCc2ccc(C(F)(F)F)cc2)nc(C(F)(F)F)n1 [Compound 42, (S)-1-(6-(2-methoxyethoxy)-2-(trifluoromethyl)pyrimidin-4-yl)-N-(4-(trifluoromethyl)phenethyl)pyrrolidine-2-carboxamide] |
| < 100 | 1000 to 30000 | COc1cc(-c2cc(N3CCC[C@H]3C(=O)NCCc3ccc(C#N)cc3)nc(C(F)(F)F)n2)ccn1 [Compound 160, (S)-N-(4-cyanophenethyl)-1-(6-(2-methoxypyridin-4-yl)-2-(trifluoromethyl)pyrimidin-4-yl)pyrrolidine-2-carboxamide] |
| 100 to 999 | 100 to 999 | N#Cc1ccc(CCNC(=O)[C@@H]2CCCN(c3cc(N4CCN(CCO)CC4)nc(C(F)(F)F)n3)C2)cc1 [Compound 313, (R)-N-(4-cyanophenethyl)-1-(6-(4-(2-hydroxyethyl)piperazin-1-yl)-2-(trifluoromethyl)pyrimidin-4-yl)piperidine-3-carboxamide] |
| 100 to 999 | 1000 to 30000 | COc1ccc(Oc2cc(N3CCC[C@H]3C(=O)NCCc3ccc(C#N)cc3)nc(C(F)(F)F)n2)cc1 [Compound 44, (S)-N-(4-cyanophenethyl)-1-(6-(4-methoxyphenoxy)-2-(trifluoromethyl)pyrimidin-4-yl)pyrrolidine-2-carboxamide] |
| 100 to 999 | 100 to 999 | N#Cc1ccc(CCNC(=O)[C@@H]2CCN2c2cc(-c3ccncc3)nc(C(F)(F)F)n2)cc1 [Compound 303] |
| < 100 | 1000 to 30000 | N#Cc1ccc(CCNC(=O)[C@@H]2CCCN2c2cc(-c3csc(C(=O)O)c3)nc(C(F)(F)F)n2)cc1 [Compound 178, (S)-4-(6-(2-((4-cyanophenethyl)carbamoyl)pyrrolidin-1-yl)-2-(trifluoromethyl)pyrimidin-4-yl)thiophene-2-carboxylic acid] |
| 100 to 999 | 1000 to 30000 | N#Cc1ccc(CCNC(=O)[C@@H]2CCCN2c2cc(-c3cccnc3)nc(C(F)(F)F)n2)cc1 [Compound 142, (S)-N-(4-cyanophenethyl)-1-(6-(pyridin-3-yl)-2-(trifluoromethyl)pyrimidin-4-yl)pyrrolidine-2-carboxamide] |
| < 100 | 1000 to 30000 | CC(C)(C)OC(=O)N1CCC(Nc2cc(N3CCC[C@H]3C(=O)NCCc3ccc(C#N)cc3)nc(C(F)(F)F)n2)CC1 [Compound 15] |
| 100 to 999 | 100 to 999 | O=C(NCCc1ccc(C(F)(F)F)cc1)[C@@H]1CCCN(c2cc(NCCO)nc(C(F)(F)F)n2)C1 [Compound 323, (R)-1-(6-((2-hydroxyethyl)amino)-2-(trifluoromethyl)pyrimidin-4-yl)-N-(4-(trifluoromethyl)phenethyl)piperidine-3-carboxamide] |
